Measured values published in patent US5053398A, “Sulfated homopolysaccharides as anti-AIDS virus agents” (Taito Co., Ltd., priority 1988, dated 1991).
Entries after “also recorded” stand apart in the source; their conditions may differ. Read-outs that look alike come from different tables or passages of the source.

What was measured:
AIDS virus [1] = conditions: background; cited from earlier work
[2] = system: reverse transcriptase of AIDS virus; conditions: background; cited from earlier work
AIDS virus in MT-4 cells = assay: Anti-AIDS virus activities, reverse transcriptase activities (MT-4 cells); assay type: cell-based, HIV (human immunodeficiency virus); conditions: 10 days, virus (-) 2481, virus (+) 348764
Protocol: Further, anti-AIDS virus activities of schizophyllan sulfates were studied by using MT-4 cells. Cells were prepared in the same manner as in Example 1(3), and into each well, 1 ml of a cell suspension containing 14×10^4 cells/ml, 1 ml of a culture medium and a sample solution were added, followed by culturing for 10 days. The anti-AIDS virus activities of schizophyllan sulfates were studied by the observation of the cytopathic effects, by the measurement of reverse transcriptase activities and by the indirect immunofluorescence assay.

AIDS virus [3] = assay: Anti-AIDS virus activities (general statements, test not specified); design: species or system HIV (human immunodeficiency virus); conditions: general findings of the inventors
[4] = system: AIDS virus (virus derived from Tall-1/HTLV-III) in Molt-4/cl. No. 8 cells; assay: Anti-AIDS virus activities, reverse transcriptase activities (Molt-4/cl. No. 8 cells); assay type: cell-based, HIV (human immunodeficiency virus)
Protocol: Virus derived from Tall-1/HTLV-III were adsorbed on Molt-4/cl. No. 8 cells. Then, the cells were washed with a culture medium to remove virus not adsorbed on the cells. The cells thus obtained were subjected to the following test.
[…] Culturing was conducted for 8 days, and cytopathic effects (CPE) by virus were observed. Further, on the 8th day, the supernatant of the culture medium was sampled and subjected to the measurement of reverse transcriptase activities. The cells were subjected to an indirect immunofluorescence assay to detect the virus antigen.
The anti-AIDS virus activities were studied with respect to the sulfates of scleroglucan and pendulan thus obtained, in accordance with the method as used in Example 1(3).
Schizophyllans having different molecular weights were sulfated in accordance with method A in Example 1 (polysaccharide: 0.5 g; pyridine/sulfuric anhydride complex: 5 g; reaction time: 5 hours). The anti-AIDS virus activities were studied with respect to the polysaccharide sulfates thus obtained, in accordance with the method as described in Example 1(3). As the control, dextran sulfate was used.

[5] = system: AIDS virus in human peripheral lymphocytes; assay: Anti-AIDS virus activities in a human peripheral blood lymphocytes system, reverse transcriptase activities; assay type: cell-based, HIV (human immunodeficiency virus); conditions: Case 2, 100 μg/ml
Protocol: In the foregoing Examples, the anti-AIDS virus activities of schizophyllan sulfates were studied in a subcultured cell line. In this Example, a test was conducted for the effects of schizophyllan sulfates for suppressing proliferation of AIDS virus in a human peripheral lymphocytes system. Lymphocytes were separated from peripheral blood of an AIDS patient by Ficoll-Paque Separation, washed three times with a serum-free culture medium and suspended in a culture medium containing 10% of FCS. Adsorbable cells were removed, and suspended cells were collected and suspended in a culture medium. Then, PHA and IL-2 were added thereto. Healthy human lymphocytes were prepared 3 days ahead by the above-mentioned method. Into each well of a microplate having 24 wells, 10^6 /1 ml of patient's lymphocytes, a culture medium, 10^6 /1 ml of healthy human lymphocytes and a schizophyllan sulfate solution were introduced, mixed and cultured. On the seventh day and eleventh day after initiation of the culturing, the supernatant was sampled and subjected to the measurement of reverse transcriptase activities. Into each well, a sampled supernatant and the same amount of a culture medium were introduced and culturing was continued.

Sarcoma 180 cells = assay: Anti-tumor activities, Sarcoma 180 in mice; assay type: in vivo
Protocol: 2×10^6 Sarcoma 180 cells were transplanted subcutaneously into the groins of mice. Twenty four hours later, 0.05 ml of a 0.5% PBS solution of schizophyllan sulfate was administered to a rear femoral muscle. Thirty days later, the mice were killed and dissected, and tumors were taken out and weighed. The tumor inhibition rates were culculated by the following equation. [formula] where A and B denote the average tumor weights (g) of the control group and the treated group.
Each group consisted of 6 mice. To the control group, PBS was administered in the same amount as in the tested group.

[6] = system: spleen of a mouse (spleen cells); assay: Mitogenic activities (3H-thymidine uptake, mouse spleen cells); assay type: cell-based
Protocol: A spleen of a mouse was aseptically taken out and dispersed in a culture medium to obtain a cell suspension containing 3×10^6 cells/ml. The cells were subdivided into wells of a 96 well-microplate so as to adjust the cell number in each well to 3×10^5. A culture medium and a sample were added to each well, followed by culturing for 3 days. On the third day, 0.5 μCi of ^3 H-thymidine was added to each well, and culturing was conducted for further 7 hours. Then, the cells were harvested and thoroughly washed, and the amount of ^3 H-thymidine taken into the cells was measured by a liquid scintillation counter.

Compound: NC(=O)c1ncn([C@@H]2O[C@H](CO)[C@@H](O)[C@H]2O)n1 [ribavirin]
- anti-AIDS virus activities (AIDS virus [1]): known to exibit anti-AIDS effects

Compound: Cc1ccc(C(=O)Nc2ccc(S(=O)(=O)O)c3cc(S(=O)(=O)O)cc(S(=O)(=O)O)c23)cc1NC(=O)c1cccc(NC(=O)Nc2cccc(C(=O)Nc3cc(C(=O)Nc4ccc(S(=O)(=O)O)c5cc(S(=O)(=O)O)cc(S(=O)(=O)O)c45)ccc3C)c2)c1 [suramin]
- anti-AIDS virus activities (AIDS virus [1]): known to exibit anti-AIDS effects

Compound: .iota.-carrageenan
- inhibition of the reverse transcriptase of AIDS virus [2]: have similar physiological activities

Compound: Dextran sulfate
- Reverse transcriptase activities (CPM) (AIDS virus in MT-4 cells; 100 μg/ml): 22317 ± 4502 CPM
- Reverse transcriptase activities (CPM) (AIDS virus in MT-4 cells; 500 μg/ml): 18501 ± 2249 CPM
- anti-AIDS virus activities (AIDS virus [3]): stronger activities than the sulfates of e.g. mannan, pullulan and alginic acid; also recorded: have anti-AIDS virus activities
- Reverse transcriptase activities (CPM) ([4]; 100 μg/ml, Molt-4/cl. No. 8 cells, 8 days, Table 3, virus (-) 199, virus (+) 27557): 1947 ± 64 CPM
- Reverse transcriptase activities (CPM) ([4]; 100 μg/ml, Table 8, virus (-) 621, virus (+) 51344): 1781 ± 169 CPM
- Reverse transcriptase activities (CPM) ([4]; 100 μg/ml, Table 9, virus (-) 854, virus (+) 49291): 1738 ± 251 CPM
- Reverse transcriptase activities (CPM) ([4]; 500 μg/ml, Molt-4/cl. No. 8 cells, 8 days, Table 3, virus (-) 199, virus (+) 27557): 703 ± 56 CPM
- Reverse transcriptase activities (CPM) ([4]; 500 μg/ml, Table 8, virus (-) 621, virus (+) 51344): 923 ± 32 CPM
- Reverse transcriptase activities (CPM) ([4]; 500 μg/ml, Table 9, virus (-) 854, virus (+) 49291): 923 ± 87 CPM
- anti-AIDS virus activities (AIDS virus [1]): have anti-AIDS virus activities
- Reverse transcriptase activities (CPM) ([5]; 7th day, no addition 2872): 1789 ± 53 CPM
- Reverse transcriptase activities (CPM) ([5]; 11th day, no addition 80436): 42792 ± 14582 CPM
- Reverse transcriptase activities (CPM) ([5]; 18th day, no addition 67665): 280741 ± 31039 CPM

Compound: Schizophyllan
- Control rate (%) (tumor inhibition rate) (Sarcoma 180 cells; 0.05 ml of 0.5% PBS solution, rear femoral muscle, 30 days): 99.0%
- Average weight (g) of tumor (wt ± S.E.) (Sarcoma 180 cells; 0.05 ml of 0.5% PBS solution, rear femoral muscle, 30 days, PBS control 4.07): 0.04 ± 0.016 g
- anti-tumor activities (Sarcoma 180 cells; mouse, in vivo): having anti-tumor activities
- mitogenic activities [6]: not observed
- Mitogenic activities, Count (CPM), control ([6]; control substances, concentration not stated (printed under the 100 μg/ml column), Table 2): 1981 ± 184 CPM

Compound: chondroitin sulfate
- inhibition of the reverse transcriptase of AIDS virus [2]: have similar physiological activities

Compound: dextran
- anti-AIDS virus activities (AIDS virus [1]): having no anti-AIDS virus activities

Compound: heparin
- inhibition of the reverse transcriptase of AIDS virus [2]: have similar physiological activities

Compound: interferon
- anti-AIDS virus activities (AIDS virus [1]): known to exibit anti-AIDS effects

Compound: k-carrageenan
- inhibition of the reverse transcriptase of AIDS virus [2]: have similar physiological activities

Compound: lentinan sulfate
- anti-AIDS virus activities (AIDS virus [3]): have anti-AIDS virus activities

Compound: λ-carrageenan
- inhibition of the reverse transcriptase of AIDS virus [2]: have similar physiological activities
